What was measured:
[1] = test system: mustard, wild; test: Test D postemergence; type: in vivo, Sinapis arvensis; conditions: scale 0 to 100
Source text: (§1) Seeds of plant species selected from bluegrass (annual bluegrass, Poa annua), blackgrass (Alopecurus myosuroides), canarygrass (littleseed canarygrass, Phalaris minor), chickweed (common chickweed, Stellaria media), galium (catchweed bedstraw, Galium aparine), bromegrass, downy (downy bromegrass, Bromus tectorum), field poppy (Papaver rhoeas), field violet (Viola arvensis), foxtail, green (green foxtail, Setaria viridis), deadnettle (henbit deadnettle, Lamium amplexicaule), ryegrass, Italian (Italian ryegrass, Lolium multiflorum), kochia (Kochia scoparia), lambsquarters (Chenopodium album), oilseed rape (Brassica napus), pigweed (redroot pigweed, Amaranthus retroflexus), chamomile (scentless chamomile, Matricaria inodora), speedwell (bird's-eye speedwell, Veronica persica), barley, spring (spring barley, Hordeum vulgare), wheat, spring (spring wheat, Triticum aestivum), buckwheat, wild (wild buckwheat, Polygonum convolvulus), mustard, wild (wild mustard, Sinapis arvensis), oat, wild (wild oat, Avena fatua), radish, wild (wild radish, Raphanus raphanistrum), windgrass (Apera spica-venti), Russian thistle (Salsola kali), barley, winter (winter barley, Hordeum vulgare), and wheat, winter (winter wheat, Triticum aestivum) were planted into a silt loam soil and treated preemergence with test chemicals formulated in a non-phytotoxic solvent mixture which included a surfactant.
(§2) At the same time, these species were planted in pots containing Redi-Earth® planting medium (Scotts Company, 14111 Scottslawn Road, Marysville, Ohio 43041) comprising spaghnum peat moss, vermiculite, wetting agent and starter nutrients and treated with postemergence applications of the test chemicals formulated in the same manner. Plants ranged in height from 2 to 18 cm (1- to 4-leaf stage). Treated plants and controls were maintained in a controlled growth environment for 14 to 21 days after which time all species were compared to controls and visually evaluated. Plant response ratings, summarized in Table D, are based on a scale of 0 to 100 where 0 is no effect and 100 is complete control. A dash (-) response means no test result.

[2] = test system: lambsquarters; test: Test F preemergence; type: in vivo, Chenopodium album
How it was run: (§3)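 Visual injury was scored from 0 (none) to 100 (complete control) relative to untreated controls after 14–21 days in a greenhouse. Before that, formulated compound (solvent plus surfactant) was sprayed either on silt-loam soil right after sowing or on emerged plants at the 1–4-leaf stage, 2–18 cm tall.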

[3] = test system: ryegrass, Italian; test: Test D postemergence; type: in vivo, Lolium multiflorum; conditions: scale 0 to 100
How it was run: (§4)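 Postemergence activity was tested on plants at the 1- to 4-leaf stage (2–18 cm) grown in peat-based medium, and preemergence activity on seeds in silt loam, with chemicals in a surfactant-containing non-phytotoxic solvent. Controlled-environment growth lasted 14–21 days before visual 0–100 scoring.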

[4] = test system: pigweed; test: Test D preemergence; type: in vivo, Amaranthus retroflexus; conditions: scale 0 to 100
Source text: as §1, §2

[5] = test system: wild poinsettia; test: Test F preemergence; type: in vivo, Euphorbia heterophylla
How it was run: as §3

[6] = test system: bromegrass, downy; test: Test D preemergence; type: in vivo, Bromus tectorum; conditions: scale 0 to 100
How it was run: as §4

[7] = test system: chickweed; test: Test D postemergence; type: in vivo, Stellaria media; conditions: scale 0 to 100
How it was run: as §4

[8] = test system: large crabgrass; test: Test F preemergence; type: in vivo, Digitaria sanguinalis
How it was run: as §3

[9] = test system: canarygrass; test: Test D preemergence; type: in vivo, Phalaris minor; conditions: scale 0 to 100
How it was run: as §4

[10] = test system: galium; test: Test D preemergence; type: in vivo, Galium aparine; conditions: scale 0 to 100
How it was run: as §4

[11] = test system: oat, wild; test: Test D postemergence; type: in vivo, Avena fatua; conditions: scale 0 to 100
How it was run: as §4

[12] = test system: lambsquarters; test: Test D preemergence; type: in vivo, Chenopodium album; conditions: scale 0 to 100
How it was run: as §4

[13] = test system: giant foxtail; test: Test F preemergence; type: in vivo, Setaria faberii
How it was run: as §3

[14] = test system: lambsquarters; test: Test D postemergence; type: in vivo, Chenopodium album; conditions: scale 0 to 100
Source text: as §1, §2

[15] = Preemergence, 31 g ai/ha, scale 0 to 100
[16] = Preemergence, 62 g ai/ha, scale 0 to 100
[17] = Preemergence, 125 g ai/ha, scale 0 to 100
[18] = preemergence, 8 g ai/ha, scale 0 to 100, 100 is complete control
[19] = preemergence, 16 g ai/ha, scale 0 to 100, 100 is complete control

## CCc1cc(C(=O)NCC(F)(F)F)nn1Cc1ccnc(C(F)(F)F)c1 [Compound 78, 5-ethyl-N-(2,2,2-trifluoroethyl)-1-[[(2-trifluoromethyl)-4-pyridinyl]methyl]-1H-pyrazole-3-carboxamide]
[1]; Postemergence, 31 g ai/ha
  Mustard, Wild plant response rating: 40
[1]; Postemergence, 125 g ai/ha
  Mustard, Wild plant response rating: 90
[1]; Postemergence, 250 g ai/ha
  Mustard, Wild plant response rating: 90
[1]; postemergence, 62 g ai/ha
  Mustard, Wild plant response rating: 70
[2]; [15]
  Plant response rating, Lambsquarters: 100
[2]; [16]
  Plant response rating, Lambsquarters: 100
[2]; [17]
  Plant response rating, Lambsquarters: 100
[2]; [18]
  Plant response rating, Lambsquarters: 50
[2]; [19]
  Plant response rating, Lambsquarters: 65
[3]; Postemergence, 31 g ai/ha
  Ryegrass, Italian plant response rating: 5
[3]; Postemergence, 125 g ai/ha
  Ryegrass, Italian plant response rating: 10
[3]; Postemergence, 250 g ai/ha
  Ryegrass, Italian plant response rating: 45
[3]; postemergence, 62 g ai/ha
  Ryegrass, Italian plant response rating: 5
[4]; 31 g ai/ha
  Plant response rating, Pigweed: 100
[4]; 62 g ai/ha
  Plant response rating, Pigweed: 100
[4]; 125 g ai/ha
  Plant response rating, Pigweed: 100
[4]; 250 g ai/ha
  Plant response rating, Pigweed: 100
[5]; [15]
  Plant response rating, Wild Poinsettia: 50
[5]; [16]
  Plant response rating, Wild Poinsettia: 65
[5]; [17]
  Plant response rating, Wild Poinsettia: 98
[5]; [18]
  Plant response rating, Wild Poinsettia: 0
[5]; [19]
  Plant response rating, Wild Poinsettia: 0
[6]; 31 g ai/ha
  Plant response rating, Bromegrass, Downy: 10
[6]; 62 g ai/ha
  Plant response rating, Bromegrass, Downy: 20
[6]; 125 g ai/ha
  Plant response rating, Bromegrass, Downy: 70
[6]; 250 g ai/ha
  Plant response rating, Bromegrass, Downy: 75
[7]; Postemergence, 31 g ai/ha
  Chickweed plant response rating: 25
[7]; Postemergence, 125 g ai/ha
  Chickweed plant response rating: 70
[7]; Postemergence, 250 g ai/ha
  Chickweed plant response rating: 80
[7]; postemergence, 62 g ai/ha
  Chickweed plant response rating: 50
[8]; [15]
  Plant response rating, Large Crabgrass: 100
[8]; [16]
  Plant response rating, Large Crabgrass: 100
[8]; [17]
  Plant response rating, Large Crabgrass: 100
[8]; [18]
  Plant response rating, Large Crabgrass: 75
[8]; [19]
  Plant response rating, Large Crabgrass: 98
[9]; 31 g ai/ha
  Plant response rating, Canarygrass: 15
[9]; 62 g ai/ha
  Plant response rating, Canarygrass: 30
[9]; 125 g ai/ha
  Plant response rating, Canarygrass: 90
[9]; 250 g ai/ha
  Plant response rating, Canarygrass: 100
[10]; 31 g ai/ha
  Plant response rating, Galium: 95
[10]; 62 g ai/ha
  Plant response rating, Galium: 100
[10]; 125 g ai/ha
  Plant response rating, Galium: 100
[10]; 250 g ai/ha
  Plant response rating, Galium: 100
[11]; Postemergence, 31 g ai/ha
  Oat, Wild plant response rating: 15
[11]; Postemergence, 125 g ai/ha
  Oat, Wild plant response rating: 25
[11]; Postemergence, 250 g ai/ha
  Oat, Wild plant response rating: 40
[11]; postemergence, 62 g ai/ha
  Oat, Wild plant response rating: 20
[12]; 31 g ai/ha
  Plant response rating, Lambsquarters: 95
[12]; 62 g ai/ha
  Plant response rating, Lambsquarters: 100
[12]; 125 g ai/ha
  Plant response rating, Lambsquarters: 100
[12]; 250 g ai/ha
  Plant response rating, Lambsquarters: 100
[13]; [15]
  Plant response rating, Giant Foxtail: 100
[13]; [16]
  Plant response rating, Giant Foxtail: 100
[13]; [17]
  Plant response rating, Giant Foxtail: 100
[13]; [18]
  Plant response rating, Giant Foxtail: 5
[13]; [19]
  Plant response rating, Giant Foxtail: 50
[14]; Postemergence, 31 g ai/ha
  Lambsquarters plant response rating: 20
[14]; Postemergence, 125 g ai/ha
  Lambsquarters plant response rating: 80
[14]; Postemergence, 250 g ai/ha
  Lambsquarters plant response rating: 80
[14]; postemergence, 62 g ai/ha
  Lambsquarters plant response rating: 60
